ChEMBL document CHEMBL2331400, “Structure-based design and evaluation of naphthalene diimide G-quadruplex ligands as telomere targeting agents in pancreatic cancer cells” (J Med Chem, 2013)
The source made the active and inactive calls.

How the values were obtained:
unidentified [1] = assay: Stabilization of HSP90a promoter sequence 5'-FAM-d(GGGCCAAAGGGAAGGGGTGGG)-TAMRA-3' (unknown origin) assessed as melting temperature at 1 uM by FRET assay
MIA PaCa-2 [2] = assay: Upregulation of PRKCB gene expression in human MIAPaCa2 cells at 20 to 80 nM after 24 hrs by qPCR analysis relative to solvent-treated control; assay type: functional
MIA PaCa-2 [3] = assay: Downregulation of PPM1D gene expression in human MIAPaCa2 cells at subcytotoxic concentration after 24 hrs by qPCR analysis; assay type: functional, cell-based
MIA PaCa-2 [4] = assay: Induction of ATR/[…] gene expression in human MIAPaCa2 cells by qPCR analysis; assay type: functional, cell-based
MIA PaCa-2 [5] = assay: Downregulation of NTHL1 gene expression in human MIAPaCa2 cells at 160 nM after 24 hrs by qPCR analysis; assay type: functional, cell-based
MIA PaCa-2 [6] = assay: Downregulation of RASSF1 gene expression in human MIAPaCa2 cells at 20 to 80 nM after 24 hrs by qPCR analysis relative to solvent-treated control; assay type: functional
MIA PaCa-2 [7] = assay: Downregulation of GADD45G gene expression in human MIAPaCa2 cells at subcytotoxic concentration after 24 hrs by qPCR analysis; assay type: functional, cell-based
MIA PaCa-2 [8] = assay: Downregulation of PARP1 gene expression in human MIAPaCa2 cells at 20 to 160 nM after 24 hrs by qPCR analysis relative to solvent-treated control; assay type: functional, cell-based
[9] = Cytotoxicity against human RCC4 cells assessed as growth inhibition after 96 hrs by SRB assay; assay type: functional, cell-based; conditions: RCC4, 96 h
MIA PaCa-2 [10] = assay: Downregulation of NBN gene expression in human MIAPaCa2 cells at 20 to 160 nM after 24 hrs by qPCR analysis relative to solvent-treated control; assay type: functional, cell-based
MIA PaCa-2 [11] = assay: Downregulation of PTGES3 gene expression in human MIAPaCa2 cells at 20 to 80 nM after 24 hrs by qPCR analysis relative to solvent-treated control; assay type: functional, cell-based
MIA PaCa-2 [12] = assay: Upregulation of CDKN1A gene expression in human MIAPaCa2 cells at cytotoxic concentration after 24 hrs by qPCR analysis; assay type: functional, cell-based
A549 = assay: Cytotoxicity against human A549 cells assessed as growth inhibition after 96 hrs by SRB assay; assay type: functional, cell-based; conditions: A549, 96 h
MIA PaCa-2 [13] = assay: Downregulation of RAD50 gene expression in human MIAPaCa2 cells at 20 to 160 nM after 24 hrs by qPCR analysis relative to solvent-treated control; assay type: functional, cell-based
MIA PaCa-2 [14] = assay: Cytotoxicity against human MIAPaCa2 cells assessed as growth inhibition at 160 nM after 72 hrs by microscopic analysis; assay type: functional, cell-based
MIA PaCa-2 [15] = assay: Downregulation of POT1 gene expression in human MIAPaCa2 cells at 20 to 80 nM after 24 hrs by qPCR analysis relative to solvent-treated control; assay type: functional, cell-based
Homo sapiens = organism: Homo sapiens; assay: Stabilization of human telomeric G-quadruplex DNA sequence 5'-FAM-d(GGG[TTAGGG]3)-TAMRA-3' assessed as melting temperature at 1 uM by FRET assay
MIA PaCa-2 [16] = assay: Induction of ATM/[…] gene expression in human MIAPaCa2 cells by qPCR analysis; assay type: functional, cell-based
MIA PaCa-2 [17] = assay: Upregulation of GADD45G gene expression in human MIAPaCa2 cells at cytotoxic concentration after 24 hrs by qPCR analysis; assay type: functional, cell-based
MIA PaCa-2 [18] = assay: Downregulation of […] gene expression in human MIAPaCa2 cells at 20 to 80 nM after 24 hrs by qPCR analysis relative to solvent-treated control; assay type: functional
MIA PaCa-2 [19] = assay: Downregulation of TP73 gene expression in human MIAPaCa2 cells at 160 nM after 24 hrs by qPCR analysis; assay type: functional, cell-based
WI-38 = assay: Cytotoxicity against human WI38 cells assessed as growth inhibition after 96 hrs by SRB assay; assay type: cell-based; conditions: WI-38, 96 h
MIA PaCa-2 [20] = assay: Upregulation of NTHL1 gene expression in human MIAPaCa2 cells at sublethal concentration after 24 hrs by qPCR analysis; assay type: functional, cell-based
MIA PaCa-2 [21] = assay: Cytotoxicity against human MIAPaCa2 cells assessed as growth inhibition at 5 to 40 nM up to 96 hrs by microscopic analysis; assay type: functional, cell-based
MIA PaCa-2 [22] = assay: Cytotoxicity against human MIAPaCa2 cells assessed as growth inhibition after 96 hrs by SRB assay; assay type: functional, cell-based; conditions: MIA PaCa-2, 96 h
MIA PaCa-2 [23] = assay: Downregulation of CDK7 gene expression in human MIAPaCa2 cells at 20 to 160 nM after 24 hrs by qPCR analysis relative to solvent-treated control; assay type: functional, cell-based
MIA PaCa-2 [24] = assay: Downregulation of BAX gene expression in human MIAPaCa2 cells at 20 to 160 nM after 24 hrs by qPCR analysis relative to solvent-treated control; assay type: functional, cell-based
MIA PaCa-2 [25] = assay: Cytotoxicity against human MIAPaCa2 cells assessed as growth inhibition at 80 nM after 72 hrs by microscopic analysis; assay type: functional, cell-based
MIA PaCa-2 [26] = assay: Upregulation of PPP1R15A gene expression in human MIAPaCa2 cells at cytotoxic concentration after 24 hrs by qPCR analysis; assay type: functional, cell-based
MIA PaCa-2 [27] = assay: Upregulation of UNG gene expression in human MIAPaCa2 cells at sublethal concentration after 24 hrs by qPCR analysis; assay type: functional, cell-based
MIA PaCa-2 [28] = assay: Downregulation of DDIT3 gene expression in human MIAPaCa2 cells at subcytotoxic concentration after 24 hrs by qPCR analysis; assay type: functional, cell-based
MIA PaCa-2 [29] = assay: Upregulation of TP73 gene expression in human MIAPaCa2 cells at sublethal concentration after 24 hrs by qPCR analysis; assay type: functional, cell-based
MIA PaCa-2 [30] = assay: Downregulation of MPG gene expression in human MIAPaCa2 cells at 20 to 160 nM after 24 hrs by qPCR analysis relative to solvent-treated control; assay type: functional, cell-based
786-0 = assay: Cytotoxicity against human 786-0 cells assessed as growth inhibition after 96 hrs by SRB assay; assay type: functional, cell-based; conditions: 786-0, 96 h
MIA PaCa-2 [31] = assay: Inhibition of telomerase activity in human MIAPaCa2 cells assessed as telomere elongation at 5 to 7.5 nM after 7 days by TRAP-LIG assay; assay type: cell-based
MIA PaCa-2 [32] = assay: Cytotoxicity against human MIAPaCa2 cells assessed as growth inhibition at 5 to 40 nM after 144 hrs by microscopic analysis; assay type: functional, cell-based
unidentified [33] = assay: Stabilization of duplex DNA T-loop (unknown origin) 5'-FAM-dTATAGCTATA-HEG-TATAGCTATA-TAMRA-3' assessed as melting temperature at 1 uM by FRET assay
MIA PaCa-2 [34] = assay: Inhibition of telomerase activity in human MIAPaCa2 cells assessed as telomere elongation up to 10 uM after 7 days by TRAP-LIG assay; assay type: cell-based
MIA PaCa-2 [35] = assay: Upregulation of DDIT3 gene expression in human MIAPaCa2 cells at cytotoxic concentration after 24 hrs by qPCR analysis; assay type: functional, cell-based
MIA PaCa-2 [36] = assay: Downregulation of HUS1 gene expression in human MIAPaCa2 cells at 20 to 160 nM after 24 hrs by qPCR analysis relative to solvent-treated control; assay type: functional, cell-based
MIA PaCa-2 [37] = assay: Induction of gamma-H2AX gene expression in human MIAPaCa2 cells by qPCR analysis; assay type: functional, cell-based
MIA PaCa-2 [38] = assay: Upregulation of GADD45A gene expression in human MIAPaCa2 cells at cytotoxic concentration after 24 hrs by qPCR analysis; assay type: functional, cell-based

CN1CCN(CCCNc2cc3c4c(c(NCCCN5CCN(C)CC5)cc5c4c2C(=O)N(CCCN2CCOCC2)C5=O)C(=O)N(CCCN2CCOCC2)C3=O)CC1
>2: fold change (FC) (MIA PaCa-2 [2]) | fold change (FC) (MIA PaCa-2 [6]) | fold change (FC) (MIA PaCa-2 [18])
inactive: Activity (MIA PaCa-2 [3]) | Activity (MIA PaCa-2 [4]) | Activity (MIA PaCa-2 [7]) | Activity (MIA PaCa-2 [16]) | Activity (MIA PaCa-2 [20]) | growth inhibition (GI) (MIA PaCa-2 [25]) | Activity (MIA PaCa-2 [27]) | Activity (MIA PaCa-2 [28]) | Activity (MIA PaCa-2 [29]) | inhibition (MIA PaCa-2 [31]) | growth inhibition (GI) (MIA PaCa-2 [32]) | inhibition (MIA PaCa-2 [34])
560 nM: IC50 [9]
active: Activity (MIA PaCa-2 [5]) | Activity (MIA PaCa-2 [8]) | Activity (MIA PaCa-2 [10]) | Activity (MIA PaCa-2 [11]) | Activity (MIA PaCa-2 [12]) | Activity (MIA PaCa-2 [13]) | growth inhibition (GI) (MIA PaCa-2 [14]) | Activity (MIA PaCa-2 [15]) | Activity (MIA PaCa-2 [17]) | Activity (MIA PaCa-2 [19]) | growth inhibition (GI) (MIA PaCa-2 [21]) | Activity (MIA PaCa-2 [23]) | Activity (MIA PaCa-2 [24]) | Activity (MIA PaCa-2 [26]) | Activity (MIA PaCa-2 [30]) | Activity (MIA PaCa-2 [35]) | Activity (MIA PaCa-2 [36]) | Activity (MIA PaCa-2 [37]) | Activity (MIA PaCa-2 [38])
320 nM: IC50 (786-0)
10 nM: IC50 (MIA PaCa-2 [22])
< 10 nM: IC50 (A549)
33.1 °C: ΔTm (unidentified [1])
4.9 °C: ΔTm (unidentified [33])
230 nM: IC50 (WI-38)
26.6 °C: ΔTm (Homo sapiens)
